Laboratory results from PMC5733478, “A Non-imaging High Throughput Approach to Chemical Library Screening at the Unmodified Adenosine-A3 Receptor in Living Cells” (Frontiers in Pharmacology, 2017).
Structures can show the parent of a compound that is named as a salt.

molecular target: T1, human A3AR (Homo sapiens, UniProt P0DMS8); assay: LOPAC library primary screen: single concentration (10 μM) inhibition of 25 nM CA200645 binding, PHERAstar FS; settings: not given
T1 construct: expressed in transfected cells
T1 sequence (P0DMS8 1-318): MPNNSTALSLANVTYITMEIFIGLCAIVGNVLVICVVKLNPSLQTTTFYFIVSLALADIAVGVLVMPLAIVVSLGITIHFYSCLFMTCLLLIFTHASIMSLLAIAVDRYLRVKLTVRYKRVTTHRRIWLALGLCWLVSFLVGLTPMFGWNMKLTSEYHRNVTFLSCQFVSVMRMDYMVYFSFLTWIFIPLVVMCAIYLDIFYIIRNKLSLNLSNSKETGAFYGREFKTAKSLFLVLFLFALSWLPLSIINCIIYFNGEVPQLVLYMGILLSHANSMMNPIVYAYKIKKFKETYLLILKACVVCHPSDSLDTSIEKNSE

Row | Molecule | % 25 nM CA200645 binding
1 | CC(C)C[C@H](NC(=O)[C@H](O)[C@H](N)Cc1ccccc1)C(=O)O [Epibestatin hydrochloride] | 102.9 ± 13.0%
2 | CN(C)CCOC(C)(c1ccccc1)c1ccccn1 (stereo not drawn) [Doxylamine succinate] | 107.4 ± 0.7%
3 | CC(NCCc1ccc(O)cc1)C(O)c1ccc(O)cc1 (stereo not drawn) [Ritodrine hydrochloride] | 99.4 ± 8.5%
4 | CNC[C@H](O)c1ccc(O)c(O)c1 [(-)-Epinephrine bitartrate] | 100.5 ± 6.3%
5 | CC(=O)N1CCN(c2ccc(OCC3COC(Cn4ccnc4)(c4ccc(Cl)cc4Cl)O3)cc2)CC1 (stereo not drawn) [Ketoconazole] | 98.9 ± 9.0%
6 | CCCCNc1ccc(C(=O)OCCN(C)C)cc1 [Tetracaine hydrochloride] | 85.8 ± 26.7%
7 | Cc1cc(NC2CCCCC2)nc(-n2nc(C)cc2C)n1 [CyPPA] | 68.8 ± 15.9%
8 | Cc1cc(NC(=O)Nc2ccc3c(ccn3C)c2)sn1 [SB 204741] | 88.1 ± 14.4%
9 | CCCCCCCCCCCCCCCCCC(=O)OC(CC(=O)O)C[N+](C)(C)C.[Cl-] (racemic) [DL-Stearoylcarnitine chloride] | 44.2 ± 6.0%
10 | (+)-Catechin Hydrate | 94.3 ± 10.9%
11 | N#Cc1cc([N+](=O)[O-])c2sc(C(N)=O)[n+]([O-])c2c1 [BTO-1] | 99.9 ± 23.7%
12 | NC(=O)c1cn(Cc2c(F)cccc2F)nn1 [Rufinamide] | 100.9 ± 12.8%
13 | Cc1cc2c(cc1Cl)N(C(=O)Nc1cccc3ncccc13)CC2 [SB-215505] | 98.1 ± 14.8%
14 | Cc1cccc(-c2[nH]ncc2-c2ccc3ncccc3n2)n1 [RepSox] | 98.5 ± 5.4%
15 | O=C(O)C1CN(CCCP(=O)(O)O)CCN1 (racemic) [(±)-CPP] | 97.2 ± 1.5%
16 | NC1(C(=O)O)CCc2cc(C(=O)O)ccc21 (stereo not drawn) [AIDA] | 99.4 ± 5.4%
17 | NC[C@@H]1O[C@H](O[C@H]2[C@@H](O)[C@H](O[C@@H]3[C@@H](O)[C@H](N)C[C@H](N)[C@H]3O[C@H]3O[C@H](CO)[C@@H](O)[C@H](O)[C@H]3N)O[C@@H]2CO)[C@H](N)[C@@H](O)[C@@H]1O [Paromomycin sulfate] | 106.3 ± 7.8%
18 | CCCCCCC(=O)OC1CC(C)(C)NC(C)(C)C1.Cl [TMPH hydrochloride] | 95.1 ± 13.7%
19 | OCc1cc(C(O)CNCCCCCCOCCCCc2ccccc2)ccc1O (stereo not drawn) [Salmeterol xinafoate] | 92.6 ± 8.3%
20 | Oc1ncnc2[nH]ncc12 [Allopurinol] | 99.8 ± 7.2%

Row | Molecule | % 25 nM CA200645 binding
21 | COc1ccccc1N1CCNCC1.Cl | 114.8 ± 8.3%
22 | CCCCCCCC/C=C\CCCCCCCC(=O)NCCO [N-Oleoylethanolamine] | 98.2 ± 10.8%
23 | C[C@@](Cc1ccc(O)c(O)c1)(NN)C(=O)O [S-(-)-Carbidopa] | 101.3 ± 7.8%
24 | CC(C)Cc1ccc([C@H](C)C(=O)O)cc1 [S(+)-Ibuprofen] | 107.7 ± 17.0%
25 | CCN(CC)CCCC(C)Nc1c2ccc(Cl)cc2nc2ccc(OC)cc12 (stereo not drawn) [Quinacrine dihydrochloride] | 98.2 ± 4.9%
26 | CN(C)c1ccc(O)c2c1C[C@H]1C[C@H]3[C@H](N(C)C)C(O)=C(C(N)=O)C(=O)[C@@]3(O)C(O)=C1C2=O [Minocycline hydrochloride] | 101.7 ± 17.9%
27 | CCn1cc(C(=O)[O-])c(=O)c2ccc(C)nc21.[Na+] [Nalidixic acid sodium] | 106.1 ± 13.7%
28 | CC(=O)[C@H]1CC[C@H]2[C@@H]3CC[C@H]4C[C@](C)(O)CC[C@]4(C)[C@H]3CC[C@]12C [Ganaxolone] | 83.6 ± 13.4%
29 | L-Methionine sulfoximine | 107.1 ± 5.4%
30 | NCCCCN [Putrescine dihydrochloride] | 106.2 ± 11.7%
31 | CC[n+]1c(/C=C/C=C2/N(C)c3ccccc3C2(C)C)sc2ccccc21.[I-] [AC-93253 iodide] | 89.8 ± 11.3%
32 | CCCCC#Cc1nc(NC)c2ncn([C@@H]3O[C@H](CO)[C@@H](O)[C@H]3O)c2n1 [HEMADO, reference compound] | 40.1 ± 10.4%
33 | N=C(N)NC(=O)c1nc(Cl)c(N)nc1N [Amiloride hydrochloride] | 88.5 ± 23.0%
34 | C#CC(N)CCC(=O)O (stereo not drawn) [gamma-Acetylinic GABA] | 97.6 ± 3.0%
35 | Cn1cnc([N+](=O)[O-])c1Sc1ncnc2nc[nH]c12 [Azathioprine] | 93.9 ± 5.0%
36 | CCC(C)N(C)C(=O)c1cc2ccccc2c(-c2ccccc2Cl)n1 (stereo not drawn) [PK 11195] | 93.2 ± 6.1%
37 | CC[C@@H](CO)NC(=O)[C@@H]1C=C2c3cccc4[nH]cc(c34)C[C@H]2N(C)C1 [Methylergonovine maleate] | 91.6 ± 8.0%
38 | CC(C)NC[C@@H](O)c1ccc(O)c(O)c1.O=C(O)C(O)C(O)C(=O)O [S(+)-Isoproterenol (+)-bitartrate] | 101.2 ± 2.4%
39 | O=P1(N(CCCl)CCCl)NCCCO1 (stereo not drawn) [Cyclophosphamide monohydrate] | 79.2 ± 18.9%
40 | CC[C@@]1(O)C(=O)OCc2c1cc1n(c2=O)Cc2cc3ccccc3nc2-1 [(S)-(+)-Camptothecin] | 99.7 ± 12.1%

Row | Molecule | % 25 nM CA200645 binding
41 | CCn1nc(C(=O)O)c(=O)c2cc3c(cc21)OCO3 [Cinoxacin] | 96.9 ± 2.7%
42 | COc1cccc(OC)c1OCCNCC1CSc2ccccc2O1 (stereo not drawn) [Benoxathian hydrochloride] | 95.8 ± 4.4%
43 | C[N+](C)(C)CCO.[Br-] [Choline bromide] | 100.0 ± 6.6%
44 | OC(CCN1CCCCC1)(c1ccccc1)C1CC2C=CC1C2 (stereo not drawn) [Biperiden hydrochloride] | 86.9 ± 6.4%
45 | O=C(c1ccc(OCCN2CCCCC2)cc1)c1c(-c2ccc(O)cc2)sc2cc(O)ccc12 [Raloxifene hydrochloride] | 90.8 ± 14.0%
46 | COc1ccc2[n-]c([S@@+]([O-])Cc3ncc(C)c(OC)c3C)nc2c1.COc1ccc2[n-]c([S@@+]([O-])Cc3ncc(C)c(OC)c3C)nc2c1.O.O.[Mg+2] [Esomeprazole magnesium dihydrate] | 81.5 ± 16.8%
47 | Cl.Cl.Fc1ccc(C(OCCN2CCN(CCCc3ccccc3)CC2)c2ccc(F)cc2)cc1 [GBR-12909 dihydrochloride] | 95.7 ± 6.3%
48 | CC[C@H]1OC(=O)[C@H](C)[C@@H](O[C@H]2C[C@@](C)(OC)[C@@H](O)[C@H](C)O2)[C@H](C)[C@@H](O[C@@H]2O[C@H](C)C[C@H](N(C)C)[C@H]2O)[C@](C)(O)C[C@@H](C)CN(C)[C@H](C)[C@@H](O)[C@]1(C)O [Azithromycin dihydrate] | 98.9 ± 6.9%
49 | Br.C=CCN1CCc2cc(O)c(O)cc2C(c2ccccc2)C1 (racemic) [(±)-SKF 38393, N-allyl-, hydrobromide] | 99.7 ± 11.6%
50 | O=C(N[C@H]1CN2CCC1CC2)c1ccc(Cl)cc1 [PNU-282987] | 78.9 ± 33.0%
51 | O.O=c1cc(-c2ccccc2)oc2c(O)c(O)ccc12 [7,8-Dihydroxyflavone hydrate] | 68.2 ± 13.0%
52 | CCCCCCCC/C=C\CCCCCCCC(=O)O [Oleic Acid] | 98.9 ± 11.8%
53 | CN1CCN(CCCN2c3ccccc3Sc3ccc(Cl)cc32)CC1 [Prochlorperazine dimaleate] | 90.4 ± 18.3%
54 | CNCCCC1c2ccccc2C=Cc2ccccc21 [Protriptyline hydrochloride] | 101.6 ± 7.3%
55 | NS(=O)(=O)c1ccc(-n2nc(C(F)(F)F)cc2-c2ccc(Cl)cc2)cc1 [SC-236] | 90.8 ± 15.2%
56 | CC(=O)C(C)=NO [2,3-Butanedione monoxime] | 109.9 ± 13.3%
57 | Nc1nc2[nH]c(=O)cnc2c(=O)[nH]1 [Isoxanthopterin] | 94.7 ± 15.0%
58 | Nc1nc2c(ncn2COCCO)c(=O)[nH]1 [Acyclovir] | 99.9 ±13.7%
59 | Ro 41-0960 | 98.8 ± 6.8%
60 | Br.CCSC(=N)N [S-Ethylisothiourea hydrobromide] | 91.5 ± 10.5%

same assay, conditions: % of 25 nM CA200645 binding in the presence of 10 μM compound, LOPAC full screen, A3AR CHO cells

Row | Molecule | % Total CA200645 binding
61 | CCCCC#Cc1nc(NC)c2ncn([C@@H]3O[C@H](CO)[C@@H](O)[C@H]3O)c2n1 [HEMADO, reference compound] | 40.1 ± 10.5%

same assay, conditions: % of control wells (1% DMSO and 25 nM CA200645); compounds at 10 µM; whole live cells expressing the A3AR; mean ± SD, three experiments in duplicate

Row | Molecule | % 25 nM CA200645 binding
62 | CO[C@H]1O[C@@H]2O[C@@]3(C)CC[C@H]4[C@H](C)CC[C@@H]([C@H]1C)[C@@]24OO3 [Artemether] | 99.4 ± 9.9%
63 | N=C(N)c1ccc(N)cc1 [4-Aminobenzamidine dihydrochloride] | 97.4 ± 8.5%

same assay, conditions: compounds tested at 10 µM; % of control wells (1% DMSO and 25 nM CA200645); whole live cells expressing the A3AR; mean ± SD, three experiments in duplicate

Row | Molecule | % 25 nM CA200645 binding
64 | NC(CCCP(=O)(O)O)C(=O)O (racemic) [(±)-2-Amino-5-phosphonopentanoic acid] | 90.8 ± 6.2%
65 | CCNC(=O)N1CCN(CCCC(c2ccc(F)cc2)c2ccc(F)cc2)CC1 [Amperozide hydrochloride] | 92.9 ± 0.6%
66 | CC[C@H](C)C(=O)O[C@H]1CCC=C2C=C[C@H](C)[C@H](CC[C@@H]3C[C@@H](O)CC(=O)O3)[C@H]21 [Mevastatin] | 107.1 ± 10.0%
67 | C[C@]12CCC(=O)C=C1CC[C@@H]1[C@@H]2CC[C@@]2(C)[C@H]1CC[C@]2(O)C(=O)CO [Cortexolone] | 110.6 ± 19.2%
68 | CCC(=O)c1ccc2c(c1)N(CCCN(C)C)c1ccccc1S2 [Propionylpromazine hydrochloride] | 101.0 ± 0.8%
69 | O=C(O)c1ccccc1Nc1cccc(OCc2ccc3ccccc3n2)c1 [SR 2640] | 103.1 ± 17.1%
